For 38 molecules, IC50 and half-life results are on record in ChEMBL document CHEMBL5143754, “Novel Bcl-2 Inhibitors Selectively Disrupt the Autophagy-Specific Bcl-2-Beclin 1 Protein-Protein Interaction” (ACS Med Chem Lett, 2022).

Where only a bound is given, the exact number is not on record here.

In series [1] the target is T1, Apoptosis regulator Bcl-2 (Homo sapiens, UniProt P10415). In words: Inhibition of biotin-linker-Beclin 1 BH3 peptide binding to human C-terminal 6His-tagged Bcl-2 (1 to 218 residues) expressed in Escherichia coli BL21 Star (DE3) pLysS measured after 3 hrs by AlphaLISA assay. In general terms: Bead proximity is the source of the signal in Alpha formats.
A short description of series [2]: Half life in ICR/CD-1 mouse liver microsomes at 2 uM preincubated for 5 mins followed by NADPH regenerating system addition by LC-MS/MS analysis. Format: ADME, Microsome.
For series [3], the target named is T1, Apoptosis regulator Bcl-2. In words: Inhibition of biotin-linker-Bax BH3 peptide binding to human C-terminal 6His-tagged Bcl-2 (1 to 218 residues) expressed in Escherichia coli BL21 Star (DE3) pLysS measured after 3 hrs by AlphaLISA assay.

T1 sequence (P10415 whole entry, the tested form may be a part): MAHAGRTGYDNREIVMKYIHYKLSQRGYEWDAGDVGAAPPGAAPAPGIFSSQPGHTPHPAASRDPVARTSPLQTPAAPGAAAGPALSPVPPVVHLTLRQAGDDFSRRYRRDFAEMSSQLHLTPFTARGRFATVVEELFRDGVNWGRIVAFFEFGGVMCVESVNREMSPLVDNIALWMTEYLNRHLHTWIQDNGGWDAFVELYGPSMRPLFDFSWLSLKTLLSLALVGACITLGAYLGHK

By IC50 is commonly meant the concentration at which inhibition is half-maximal. Higher therefore signals weaker potency. On to `CS(=O)(=O)Nc1ccc(C2=NN(C(=O)c3ccc(F)cc3)C(c3ccco3)C2)cc1` (racemic), for which, in series [1], the IC50 was 12700 nM.
On the same count and under the same terms, next, `CC(C)(C)OC(=O)Nc1ccc(C2=NN(C(=O)c3ccc(Br)cc3)C(c3ccoc3)C2)cc1` (racemic): 3820 nM.
Still for that read-out and setting: next, `COC(=O)c1ccc(C2=NN(C(=O)c3ccc(Br)cc3)C(c3ccccc3)C2)cc1` (racemic): 1640 nM.
In the case of `Cc1ccc(C(=O)N2N=C(c3ccc(NC(=O)OC(C)(C)C)cc3)CC2c2ccco2)cc1` (racemic), the IC50 in series [1] was determined as 3290 nM.
What is called half-life is the time in which the quantity being followed falls by half. Low readings indicate fast loss, high ones slow loss. Consider `CC(C)(C)OC(=O)Nc1ccc(C2=NN(C(=O)c3ccc([N+](=O)[O-])cc3)C(c3ccccc3)C2)cc1` (racemic), for which the IC50 in series [1] came to 439 nM. The molecule further yielded a half-life at 2 µM in series [2] of 120 min.
In series [1], `CS(=O)(=O)Nc1ccc(C2=NN(C(=O)c3ccc(C#N)cc3)C(c3ccco3)C2)cc1` (racemic) displayed an IC50 of 7440 nM.
As to `C=CCOC(=O)Nc1ccc(C2=NN(C(=O)c3ccc(Br)cc3)C(c3ccccc3)C2)cc1` (racemic), the IC50 in series [1] was determined as 31.8 nM; in series [3] it was 8830 nM.
On to `C#CCCOC(=O)Nc1ccc(C2=NN(C(=O)c3ccc(Br)cc3)C(c3ccccc3)C2)cc1` (racemic), for which, in series [1], the IC50 came out at 65 nM.
Still for that read-out and setting: the value for `CC(C)(C)OC(=O)Nc1ccc(C2=NN(C(=O)c3ccc(Br)cc3)C(c3cncs3)C2)cc1` (racemic) was 4360 nM.
As to `CS(=O)(=O)Nc1ccc(C2=NN(C(=O)c3ccc(C(F)(F)F)cc3)C(c3ccco3)C2)cc1` (racemic), the IC50 in series [1] is 2880 nM. Besides, the half-life at 2 µM in series [2] turned out to be 2.9 min.
On the same counts, the results for `CS(=O)(=O)Nc1ccc(C2=NN(C(=O)c3ccc(Br)cc3)C(c3ccco3)C2)cc1` (racemic) are 2470 nM and 2.9 min.
Turning to `CC(C)OC(=O)Nc1ccc(C2=NN(C(=O)c3ccc(Br)cc3)C(c3ccccc3)C2C)cn1` (racemic), the IC50 worked out at 2 nM in series [1] and 157 nM in series [3].
The corresponding values for `CCOC(=O)Nc1ccc(C2=NN(C(=O)c3ccc(Br)cc3)C(c3ccccc3)C2)cc1` (racemic) are 32.8 nM and 6620 nM.
`CC(C)(C)OC(=O)Nc1ccc(C2=NN(C(=O)c3ccc(Br)cc3)C(c3ccccn3)C2)cc1` (racemic) had an IC50 in series [1] of 650 nM.
Still for that read-out and setting: next, `CC(C)(C)OC(=O)Nc1ccc(C2=NN(C(=O)c3ccc(Br)cc3)C(c3ccccc3)C2)nc1` (racemic): 372 nM.
In the case of `CC(C)(C)OC(=O)Nc1cccc(C2=NN(C(=O)c3ccc(Br)cc3)C(c3ccccc3)C2)c1` (racemic), in series [1], the IC50 was determined as 11100 nM.
Still for that read-out and setting: next, `CC(C)(C)OC(=O)Nc1ccc(C2=NN(C(=O)c3ccc(Br)cc3)C(c3ccccc3)C2)cn1` (racemic): 309 nM.
On the same count and under the same terms, the value for `CC(C)(C)OC(=O)Nc1ccc(C2=NN(C(=O)c3ccc(Br)cc3)C(c3ccccc3)C2c2ccccc2)cc1` (racemic) was 172 nM; that for `CC(C)(C)OC(=O)Nc1ccc(C2=NN(C(=O)c3ccc(Br)cc3)C(c3cccnc3)C2)cc1` (racemic) was 1630 nM.
On the same count and under the same terms, next, `COC(=O)Nc1ccc(C2=NN(C(=O)c3ccc(Br)cc3)C(c3ccccc3)C2)cc1` (racemic): 2100 nM.
On to `CC(C)(C)OC(=O)Nc1ccc(C2=NN(C(=O)c3ccc(Br)cc3)C(c3ccccc3)C2)cc1` (racemic), for which the concentration for half-maximal inhibition (IC50) in series [1] was found to be 262 nM. The half-life at 2 µM in series [2] stood at 120 min.
In turn, `CC(C)(C)NC(=O)Nc1ccc(C2=NN(C(=O)c3ccc(Br)cc3)C(c3ccccc3)C2)cc1` (racemic) came in with an IC50 in series [1] of 9220 nM.
The molecule `Cc1ccc(C(=O)N2N=C(c3ccc(NS(C)(=O)=O)cc3)CC2c2ccccc2Br)cc1` (configuration not stated) registered a half-life at 2 µM in series [2] of 2.9 min.
As for `CC(C)OC(=O)c1ccc(C2=NN(C(=O)c3ccc(Br)cc3)C(c3ccccc3)C2)cc1` (racemic), the IC50 came to 110 nM in series [1] and 4360 nM in series [3].
`CC(C)OC(=O)Nc1ccc(C2=NN(C(=O)c3ccc(Br)cc3)C(c3ccccc3)C2)cc1` (racemic): the concentration for half-maximal inhibition (IC50) in series [1] came out at 4.4 nM; in series [3] it was 881 nM. In series [2], this molecule registered a half-life at 2 µM of 120 min.
In the case of `CC1C(c2ccc(NC(=O)OC(C)(C)C)cc2)=NN(C(=O)c2ccc(Br)cc2)C1c1ccccc1` (racemic), the IC50 in series [1] is 27.4 nM.
Still for that read-out and setting: next, `CN(C)C(=O)c1ccc(C2=NN(C(=O)c3ccc(Br)cc3)C(c3ccccc3)C2)cc1` (racemic): 5910 nM.
`CS(=O)(=O)Nc1ccc(C2=NN(C(=O)c3ccc([N+](=O)[O-])cc3)C(c3ccco3)C2)cc1` (racemic): the IC50 in series [1] stood at 1970 nM. In addition, the half-life at 2 µM in series [2] was 2.9 min.
In series [1], `CC(C)COC(=O)Nc1ccc(C2=NN(C(=O)c3ccc(Br)cc3)C(c3ccccc3)C2)cc1` (racemic) displayed an IC50 of 164 nM.
For the molecule `O=C(Nc1ccc(C2=NN(C(=O)c3ccc(Br)cc3)C(c3ccccc3)C2)cc1)OC1CC1` (racemic), the IC50 in series [1] was found to be 44.1 nM; in series [3] it was 15100 nM.
In turn, `CC(C)(C)OC(=O)Nc1ccc(C2=NN(C(=O)c3cccnc3)C(c3ccccc3)C2)cc1` (racemic) displayed an IC50 in series [1] of 14500 nM.
With `CC(C)C(=O)Oc1ccc(C2=NN(C(=O)c3ccc(Br)cc3)C(c3ccccc3)C2)cc1` (racemic), the IC50 in series [1] is 5450 nM.
In turn, `CC(C)(C)OC(=O)Nc1ccc(C2=NN(C(=O)c3ccc(Br)cc3)C(c3nccs3)C2)cc1` (racemic) yielded an IC50 in series [1] of 1610 nM.
On the same count and under the same terms, next, `COc1ccc(C(=O)N2N=C(c3ccc(NS(C)(=O)=O)cc3)CC2c2ccco2)cc1` (racemic): 10100 nM; `CS(=O)(=O)Nc1ccc(C2=NN(C(=O)c3ccc(Cl)cc3)C(c3ccco3)C2)cc1` (racemic): 2720 nM.
Same read-out and setting: the value for `CC(C)(C)OC(=O)Nc1ccc(C2=NN(C(=O)c3ccc(Br)cc3)C(c3ccco3)C2)cc1` (racemic) was 1260 nM.
With `Cc1ccc(C(=O)N2N=C(c3ccc(NS(C)(=O)=O)cc3)CC2c2ccco2)cc1` (racemic), the IC50 in series [1] is 15900 nM; in series [3], above 10000 nM. In series [2], the half-life at 2 µM was 2.9 min.
In the case of `CC(C)(C)OC(=O)Nc1ccc(C2=NN(C(=O)c3ccc(Br)cc3)C(c3ccncc3)C2)cc1` (racemic), the IC50 in series [1] stood at 2780 nM.
